Laboratory results taken from patent US8551999B2, “Heterocyclic compound and pharmaceutical composition thereof” (Otsuka Pharmaceutical Co., Ltd., priority 2007, dated 2013).

melting point	SMILES
269 to 270.3 °C	Br.Cn1c(C(=O)N2CCN(Cc3ccc(OCC(F)(F)F)cc3)CC2)cc2ccc(Oc3ccc(NC(=O)c4ccc(C(F)(F)F)cc4)cn3)cc21 [Example 474, N-[6-(1-Methyl-2-{4-[4-(2,2,2-trifluoroethoxy)benzyl]piperazine-1-carbonyl}-1H-indol-6-yloxy)pyridin-3-yl]-4-trifluoromethyl-benzamide hydrobromide]
220 to 222.5 °C	Br.Cc1cc(Oc2ccc3cc(C(=O)N4CCN(Cc5ccc(OCC(F)(F)F)cc5)CC4)n(C)c3c2)ncc1N(C)C(=O)c1ccc(C(F)(F)F)cc1 [Example 47, N-Methyl-N-[4-methyl-6-(1-methyl-2-{4-[4-(2,2,2-trifluoroethoxy)-benzyl]piperazine-1-carbonyl}-1H-indol-6-yloxy)pyridin-3-yl]-4-trifluoromethylbenzamide hydrobromide]
191.8 to 194.4 °C	CN(c1ccc(Oc2ccc3c(c2)cc(C(=O)N2CCN(Cc4ccc(OCC(F)(F)F)cc4)CC2)n3C)nc1)S(=O)(=O)c1ccc(C(F)(F)F)cc1 [Example 527, N-Methyl-N-[6-(1-methyl-2-{4-[4-(2,2,2-trifluoroethoxy)benzyl]-piperazine-1-carbonyl}-1H-indol-5-yloxy)pyridin-3-yl]-4-tri-fluoromethylbenzenesulfonamide]
236.8 to 237.5 °C	Br.Cn1c(C(=O)N2CCN(Cc3ccc(OCC(F)(F)F)cc3)CC2)cc2cc(Oc3ccc(NC(=O)c4ccc(C(F)(F)F)cc4)cn3)ccc21 [Example 463, N-[6-(1-Methyl-2-{4-[4-(2,2,2-trifluoroethoxy)benzyl]piperazine-1-carbonyl}-1H-indol-5-yloxy)pyridin-3-yl]-4-trifluoromethyl-benzamide hydrobromide]
239.5 to 240.6 °C	Br.CN(C(=O)c1ccc(C(F)(F)F)cc1Cl)c1ccc(Oc2ccc3cc(C(=O)N4CCN(Cc5ccc(OCC(F)(F)F)cc5)CC4)n(C)c3c2)nc1 [Example 449, 2-Chloro-N-methyl-N-[6-(1-methyl-2-{4-[4-(2,2,2-trifluoroethoxy)-benzyl]piperazine-1-carbonyl}-1H-indol-6-yloxy)pyridin-3-yl]-4-trifluoromethylbenzamide hydrobromide]
213 to 216 °C	Br.CN(C(=O)c1ccc(C(F)(F)F)cc1)c1ccc(Oc2ccc3c(c2)cc(C(=O)N2CCN(Cc4ccc(OC(F)(F)F)cc4)CC2)n3C)nc1 [Example 343, N-Methyl-N-(6-{1-methyl-2-[4-(4-trifluoromethoxybenzyl)-piperazine-1-carbonyl]-1H-indol-5-yloxy}pyridin-3-yl)-4-tri-fluoromethylbenzamide hydrobromide]

Continued, molecule first:

SMILES	melting point
COc1ccc(CN2CCN(C(=O)c3cc4c(Oc5ccc(N(C)C(=O)c6ccc(C(F)(F)F)cc6)cn5)cccc4n3C)CC2)cc1.O=C(O)C(=O)O [Example 325, N-(6-{2-[4-(4-Methoxybenzyl)piperazine-1-carbonyl]-1-methyl-1H-indol-4-yloxy}pyridin-3-yl)-N-methyl-4-trifluoromethylbenzamide oxalate]	139 to 141 °C
CCCCS(=O)(=O)N(C)c1ccc(Oc2ccc3cc(C(=O)N4CCN(Cc5ccc(OCC(F)(F)F)cc5)CC4)n(C)c3c2)nc1.Cl	253.6 to 254.4 °C
C[C@H]1CN(Cc2ccccn2)CCN1C(=O)c1cc2cc(Oc3ccc(NC(=O)c4ccc(C(F)(F)F)cc4)cn3)ccc2n1C.O=C(O)C(=O)O.O=C(O)C(=O)O [Example 397, N-{6-[1-Methyl-2-((S)-2-methyl-4-pyridin-2-ylmethylpiperazine-1-carbonyl)-1H-indol-5-yloxy]pyridin-3-yl}-4-trifluoromethyl-benzamide dioxalate]	126 to 127 °C
COc1ccc(CN2CCN(C(=O)c3cc4c(C)c(Oc5ccc(NC(=O)c6ccc(C(F)(F)F)cc6)cn5)ccc4n3C)CC2)cc1 [Example 235, N-(6-{2-[4-(4-Methoxybenzyl)piperazine-1-carbonyl]-1,4-dimethyl-1H-indol-5-yloxy}pyridin-3-yl)-4-trifluoromethylbenzamide]	219 to 221 °C
